Article PMC9108603, “Microbial Metabolite Inspired β‐Peptide Polymers Displaying Potent and Selective Antifungal Activity” (Advanced Science, 2022)

Assays:
[1] = test system: C. albicans (K1 strain); test: Killing efficiency under energy depletion; type: cell-based, Candida albicans; settings: 2 × MFC (50 μg/mL), colony count, n = 3
Procedure: Energy depletion analysis. For energy depletion experiments, cell suspension of C. albicans (K1 strain) at 3.0 × 10^6 CFU/mL was pretreated with RPMI containing 5 mM NaN 3 for 1 h. For antifungal efficiency assay, a fresh cell suspension pretreated or non-pretreated with NaN 3 were incubated with 50 μg/mL PDAP 20 or without an antifungal agent (as energy depletion control) for 24 h. The fresh cell suspension without antifungal agents before and after incubation with NaN 3 for 24 h were used as the controls, respectively. The suspensions were diluted and plated on YPD agar. The plates were incubated at 30 °C for 24 h and colony amounts were counted. The cell viability after incubation at 4 °C with 50 μg/mL PDAP 20 or without an antifungal agent (as positive control) was measured using the same method.
For the confocal assay, a fresh cell suspension pretreated or non-pretreated with NaN 3 was incubated with 50 μg/mL CPM-PDAP 20 for 24 h, respectively. […]
For flow cytometry experiment, a fresh cell suspension pretreated or non-pretreated with NaN 3 was incubated with 50 μg/mL CPM-PDAP 20 for 1 h and 2 h, respectively. Fungal cells were washed by PBS to remove polymers, and 5.0 × 10^4 cells were counted and anaysized. The polymer uptake was calculated by flow cytometry (Backman). Furthermore, cell suspensions were incubated with 10 μg/mL PI for 10 min for calculated PI uptake. […]

[2] = test system: C. albicans (K1 strain); test: DNA fragmentation assay (TUNEL); type: cell-based, Candida albicans; settings: 50 μg/mL PDAP20, 8 h, 3.0 × 10^6 CFU/mL; late stage of apoptosis
Procedure: NAC concentration without affecting the normal cell growth. Wells containing cells in RPMI and 40 mM H 2O2 was used as positive controls. Cell suspension of C. albicans (K1 strain) at 6.0 × 10^6 CFU/mL was treated with 20 μM 2,7-dichlorodi-hydrofluorescein diacetate (DCFHDA) for 20 min. Then 50 µL of the cell suspension was added to each well, except the blank control (RMPI containing DCFHDA without cells). The fluorescence intensity of the induced ROS production was measured every 30 min using a plate reader at λ ex = 485 nm and λem = 530 nm. […]
Detection of mitochondrial membrane potential. Changes in mitochondrial membrane potential in C. albicans after incubation with PDAP 20 were analyzed using JC-1 as previously described. Mitochondrial membrane potential was detected with the fluorescent dye JC-1, which exists as aggregates (red) in normal cells with polarized mitochondria, whereas exists as monomers (green) in apoptotic cells with depolarized mitochondria. […]
DNA fragmentation assay. Apoptosis induced DNA fragments in C. albicans cells were analyzed using the TdT-mediated dUTP Nick-End Labeling (TUNEL) method. […]
fresh non-treated cell suspension was used as a control. The bright field and FITC fluorescence were collected under 100× oil immersion lenses, with representative areas in the images electronically amplified sixfold. […]

[3] = test system: mature C. albicans biofilms; test: Eradication of mature biofilm (MTT); type: cell-based, Candida albicans; settings: 48 h biofilm, then 48 h treatment at 37 °C
[4] = test system: BALB/c mice eyes; type: in vivo, mouse; settings: 15 mg mL^−1 eye drops every 5 min for 1 h, then every 30 min for 7 h; male BALB/c, n = 3
Procedure: Medicine (Accreditation number of the laboratory: SHDSYY-2021-1729). The experiment
method. […] AmpB was
(2.5% DMSO in final solution).
The organs (kidney, liver, and
14th day for histological analysis and blood biochemistry analysis.
30 min during the next 7 h.
C. albicans biofilm formation on contact lenses. The contact lenses (Biomedic ®, Cooper
Then the discs were transferred to a
and incubated at rt with shaking at 100 rpm. After 6 hours of incubation, the suspension was […]

How did the “Fungal cells killed under energy depletion, NaN3” value ([1]; 5 × 10^−3 M NaN3, 3.0 × 10^6 CFU/mL, 24 h) turn out when poly(DL‐diaminopropionic acid) [PDAP20] was run?
The value was “about 88%”.

What about the “Fungal cells killed under energy depletion, 4°C” value ([1]; at 4°C) of the same substance?
Its value is “about 88%”.

And the “DNA fragmentation, TUNEL” value [2]?
The value was “strong green cytosol fluorescence”.

And the “Concentration that eradicates mature biofilms (SMIC80)” value [3]?
Its value is 50 µg/mL.

And the “Corneal histology (H&E) after topical administration” value [4]?
Its value is “no obvious toxicity”.
